Experimental data reported in patent publication US20130253069A1, “Use of DMSO for Destroying Adipocytes and Eliminating Cellulite and Adiposities” (priority 2010, published 2013).
Read-outs that look alike come from different tables or passages of the source.

Legend:
[1] = cited from earlier work
[2] = test system: fat cells; conditions: cited from earlier work
[3] = test system: cellulite and adiposities; assay: Study of efficacy of topically delivered DMSO for eliminating cellulite and adiposities; assay type: in vivo, human
Source text: This study was exclusively designed to determine the efficacy and safety of DMSO delivered in several manners and in different concentrations for eliminating cellulite and adiposities.
This is a multicentric, prospective, longitudinal study, where clinical and instrumental parameters are used to detect results regarding different formulations and application forms performed. It is not possible to perform a double-blind study with placebo due to the strong odor of DMSO present in formulations, easy to identify.
A group of 145 subjects, with ages ranging from 18 to 55 years (average 36.5 y.o.), having cellulite for at least 2 years, were recruited from April, 2008 until July, 2008.
Inclusion criteria were: presence of cellulite (stages 1, 2, 3, and 4) in subjects of groups A and B; accentuated abdominal fat in the subjects of the group C; age ranging from 18 to 55 years old and interest in entering the study.
Exclusion criteria were: after liposculpture, other treatments anti-cellulite ongoing or 30 days before entering the study, pregnant and nursing women, cancer, people with hormonal alterations, endocrinological disorders, and people under hormonal or endocrinal treatment.
(§1) 145 subjects were randomized in 3 groups and received 3 different treatments according to established method. Group A entered 29 female subjects having Dermal Paniculopathy (cellulite) stages 1 and 2, Group B entered 58 female subjects with Dermal Paniculopathy (cellulite) stages 3 and 4, and Group C entered 58 subjects, 35 female and 23 male, all having pronounced abdominal fat.
(§2) The three products were formulated as follows: group A consisted in an aqueous solution of DMSO at 20% and aerosol spray to 5%, group B consisted in an aqueous solution of DMSO at 50% and aerosol spray 5%, and group C consisted in an aqueous solution of DMSO at 90% and aerosol spray at 5%.
The aqueous solution was used in the massage applied before the delivery of spray. Each massage session lasted 45 minutes in average.
After massage, the spray was applied at 30 cm (11.80 in) of distance for approximately 5 seconds in each site.
After the procedure as above, a drainage massage was applied for 20 minutes.
In total, each session last 1 hour and 30 minutes in average.
Two sessions were applied per week during 5 weeks.
All subjects were analyzed at the end of each session, and especially after the 10 sessions.
Evaluation methods were: digital photographs (before and after), clinical observation, measurement of thigh circumference, pinching test (for pain), measurement of fat with plicometer/adipometer, measurement of abdominal circumference, measurement of hips and waist circumference, and questionnaire with questions about swelling, pain and heaviness in the legs, cellulite appearance, weight, general efficacy of the product, tolerability, satisfaction with the treatment, sensation of wellbeing, increased diuresis, urine color, among others.

[4] = cited from earlier work; remark: listed apart in the source
[5] = set-up: species or system human; conditions: in vivo
Source text: as §1, §2
The aqueous solution was used in the massage applied before the delivery of spray. Each massage session lasted 45 minutes in average. […]
Adverse reactions commonly reported in a period of 2 hours right after the application were: nausea (27 subjects or 19%), headache (15 subjects or 11%), feeling of burn in application site (11 subjects or 8%), itch and redness in application site (14 subjects or 10%), hypotension (7 subjects or 5%), odor and taste similar to garlic or corn (136 subjects or 98%), dry mouth (32 subjects or 23%), increased diuresis (98 subjects or 70%), strong urine color and odor (68 subjects or 49%). These reactions were evaluated as light and transitory.

[6] = test system: adipocytes (fat cells); assay: Adipocytes destroyed per application of DMSO; assay type: in vivo
[7] = test system: cyclic AMP phosphodiesterase; conditions: present in fat cells; high concentrations; cited from earlier work
[8] = test system: serum cholesterol; conditions: cats, given with water along with a cholesterol-based diet; cited from earlier work
[9] = cited from earlier work; remark: listed apart in the source
[10] = humans, after DMSO administration
[11] = humans, dermal delivery of a DMSO solution at 70%
[12] = % of subjects in this category after 10 topical sessions
[13] = % of subjects in this category after 10 topical sessions, regular diet and physical activities kept
[14] = reports among subjects with accentuated venous insufficiency and varicose veins (30% of 139)
[15] = humans, plasma, dermal delivery of a DMSO solution at 70%
[16] = topical DMSO 80%, gram/kg per day, 60 subjects, 14 days

CS(C)(=O)=O [DMSO2, Dimethyl sulphona]
time DMSO2 persisted in plasma [1, 10]: approximately 400 hours | time at which DMSO2 appeared in plasma [1, 10]: 48 h | Excretion of DMSO2 ([1]; humans, dermal administration of DMSO): 21-23% | duration of urinary excretion of DMSO2 [1, 11]: 456 h | plasmatic levels of DMSO2 after 312 hours [1, 11]: low but still detectable | time at which urinary excretion of DMSO2 became more significant [1, 11]: approximately 8 hours | time of maximum plasmatic levels of DMSO2 [1, 11]: 60 to 70 h | total average amount of DMSO2 excreted in urine [1, 11]: 17.8 % dose of DMSO | Excretion of DMSO2 ([1]; humans, oral administration of DMSO): 5-10% | accumulation of cyclic AMP due to norepinephrine [2]: did not cause any changes

C[S+](C)[O-] [DMSO, Dimethyl Sulfoxide]
General satisfaction after all 10 sessions: Bad ([3]; % of subjects in this category): 0% | General satisfaction after all 10 sessions: Excellent ([3]; % of subjects in this category): 72% | General satisfaction after all 10 sessions: Good ([3]; % of subjects in this category): 6% | General satisfaction after all 10 sessions: Great ([3]; % of subjects in this category): 22% | General satisfaction after all 10 sessions: Regular ([3]; % of subjects in this category): 0% | Abdominal circumference reduction: 3.1-5 cm [3, 12]: 39% | Abdominal circumference reduction: 5.1 cm and more [3, 12]: 29% | Abdominal circumference reduction: Up to 3 cm [3, 12]: 32% | Diuresis improvement: Bad [3, 12]: 0% | Diuresis improvement: Excellent [3, 12]: 28% | Diuresis improvement: Good [3, 12]: 25% | Diuresis improvement: Great [3, 12]: 39% | Diuresis improvement: Regular [3, 12]: 8% | General efficacy: Bad [3, 12]: 0% | General efficacy: Excellent [3, 12]: 74% | General efficacy: Good [3, 12]: 9% | General efficacy: Great [3, 12]: 17% | General efficacy: Regular [3, 12]: 0% | General feeling of improvement: Bad [3, 12]: 0% | General feeling of improvement: Excellent [3, 12]: 78% | General feeling of improvement: Good [3, 12]: 10% | General feeling of improvement: Great [3, 12]: 12% | General feeling of improvement: Regular [3, 12]: 0% | Hip circumference reduction: 2.6-4.5 cm [3, 12]: 43% | Hip circumference reduction: 4.5 cm and more [3, 12]: 26% | Hip circumference reduction: Up to 2.5 cm [3, 12]: 31% | Improvement from orange peel skin appearance: Bad [3, 12]: 0% | Improvement from orange peel skin appearance: Excellent [3, 12]: 76% | Improvement from orange peel skin appearance: Good [3, 12]: 11% | Improvement from orange peel skin appearance: Great [3, 12]: 13% | Improvement from orange peel skin appearance: Regular [3, 12]: 0% | Mood improvement: Bad [3, 12]: 0% | Mood improvement: Excellent [3, 12]: 26% | Mood improvement: Good [3, 12]: 33% | Mood improvement: Great [3, 12]: 41% | Mood improvement: Regular [3, 12]: 0% | Reduced pain in cellulite sites: Bad [3, 12]: 0% | Reduced pain in cellulite sites: Excellent [3, 12]: 21% | Reduced pain in cellulite sites: Good [3, 12]: 39% | Reduced pain in cellulite sites: Great [3, 12]: 27% | Reduced pain in cellulite sites: Regular [3, 12]: 13% | Thigh circumference reduction: 2.1-4 cm [3, 12]: 48% | Thigh circumference reduction: 4.1 cm and more [3, 12]: 24% | Thigh circumference reduction: Up to 2 cm [3, 12]: 28% | well-being: Bad [3, 12]: 5% | well-being: Excellent [3, 12]: 20% | well-being: Good [3, 12]: 28% | well-being: Great [3, 12]: 44% | well-being: Regular [3, 12]: 3% | Weight loss: 2.1-3 kg [3, 13]: 44% | Weight loss: 3 kg and more [3, 13]: 25% | Weight loss: Up to 2 kg [3, 13]: 31% | Decreased and whitened macrovaricose veins [3, 14]: 39% | Decreased pain in legs, arms and hands [3, 14]: 62% | Decreased swelling and heaviness in the legs [3, 14]: 73% | Decreased tingling legs and arms [3, 14]: 55% | teratogenic effects ([4]; animals exposed): Teratogenic effects were observed | ocular findings in animals ([4]; studies in animals): changes to lenses | Discontinuation of treatment due to adverse reactions [5]: No patient discontinued the treatment due to adverse reactions | dose excreted in the air as dimethyl sulfide ([1]; estimate of Kolb et al. (1965)): approximately 3 % of the dose | dose recovered in urine ([1]; humans, 1 g/kg dermally, fluid form and gel form, 10 subjects each): less than 10 % of the dose | Urinary excretion of DMSO ([1]; humans, dermal administration): 30-68 % of the dose | Total urinary excretion of DMSO (average) [1, 11]: 13 % dose | dose accounted for by urinary excretion of DMSO and DMSO2 (average) [1, 11]: 30.8 % dose | duration of urinary excretion of DMSO [1, 11]: 48 h | time of maximum plasmatic levels of DMSO [1, 11]: 4 to 8 h | time of peak of plasmatic levels ([1]; humans, dermally administered): 4 to 8 h | Urinary excretion of DMSO ([1]; humans, oral administration): approximately 13 % of the dose | time to plasma peak ([1]; humans, orally administered): ≤ 4 h | half-life [1, 15]: 11 to 14 h | time after which DMSO could not be detected any longer [1, 15]: 36 to 48 h | time after which serum levels of DMSO were undetectable ([1]; humans): 120 h | share of excretion via air ([1]; in vivo): less than 3% | amount of adipocytes destroyed per session/application [6]: 50,000-500,000 cells | activity of cyclic AMP phosphodiesterase, soluble and particulate [7]: inhibited | time at which increase of cyclic AMP due to DMSO was detected ([2]; after addition of the lipolytic agents, 1.10 M DMSO): 40 s | increase of lipolysis due to glucagon, norepinephrine or theophylline [2]: potentialized | lipolysis [2]: increased | oxidation of glucose stimulated by insulin [2]: decreased | prevention of expected increase of serum cholesterol [8]: 50% | eosinophilia ([9]; DMSO at 80% gram/kilogram per day topically for 14 days and 90 days): can cause eosinophilia | ocular adverse effect ([9]; subjects receiving topical solution): No ocular adverse effect was observed | dizziness [9, 16]: 18% | dry nasal passages, dry or painful throat and cough [9, 16]: Less than 5% | headache [9, 16]: 42% | sedation [9, 16]: 52% | duration of odor similar to garlic in the body ([9]; topical application): up to 72 hours

CSC [dimethyl sulfide]
accumulation of cyclic AMP due to norepinephrine [2]: did not cause any changes
